Laboratory results from PMC6402482 (ACS chemical biology, 2018).

Columns and labels:
[1] = biological target: active PARP1 enzyme (Homo sapiens, UniProt P09874); test: PARP1 enzyme inhibition ex vivo; conditions: 0–100 nM on active PARP1 enzyme (10 U), triplicate
[2] = Comet tail intensity assay of DNA damage and repair after H2O2; type: cell-based, mouse; conditions: 10 µM, 200 µM H2O2, repair over 30 min
[3] = system: primary cortical neurons; test: Oxygen-glucose deprivation; type: cell-based, rat; conditions: concentrations >100 nM
[4] = system: cancer cell lines; conditions: most cancer cell lines; cited from earlier work
[5] = system: primary cortical neurons; test: Mitochondrial and cytosolic NAD+ 24 h after OGD; type: cell-based, rat; conditions: 10 nM, n = 6/group
[6] = system: rat primary cortical neurons; test: Cytotoxicity in primary cortical neurons, LDH release at 24 h; type: cell-based; conditions: n = 6/group
[7] = Glutamate-induced ferroptotic cell death in HT22 cells, LDH release at 24 h; type: cell-based, mouse; conditions: 5 mM glutamate, LDH at 24 h, n = 5/group

active PARP1 enzyme, sequence (P09874 whole entry): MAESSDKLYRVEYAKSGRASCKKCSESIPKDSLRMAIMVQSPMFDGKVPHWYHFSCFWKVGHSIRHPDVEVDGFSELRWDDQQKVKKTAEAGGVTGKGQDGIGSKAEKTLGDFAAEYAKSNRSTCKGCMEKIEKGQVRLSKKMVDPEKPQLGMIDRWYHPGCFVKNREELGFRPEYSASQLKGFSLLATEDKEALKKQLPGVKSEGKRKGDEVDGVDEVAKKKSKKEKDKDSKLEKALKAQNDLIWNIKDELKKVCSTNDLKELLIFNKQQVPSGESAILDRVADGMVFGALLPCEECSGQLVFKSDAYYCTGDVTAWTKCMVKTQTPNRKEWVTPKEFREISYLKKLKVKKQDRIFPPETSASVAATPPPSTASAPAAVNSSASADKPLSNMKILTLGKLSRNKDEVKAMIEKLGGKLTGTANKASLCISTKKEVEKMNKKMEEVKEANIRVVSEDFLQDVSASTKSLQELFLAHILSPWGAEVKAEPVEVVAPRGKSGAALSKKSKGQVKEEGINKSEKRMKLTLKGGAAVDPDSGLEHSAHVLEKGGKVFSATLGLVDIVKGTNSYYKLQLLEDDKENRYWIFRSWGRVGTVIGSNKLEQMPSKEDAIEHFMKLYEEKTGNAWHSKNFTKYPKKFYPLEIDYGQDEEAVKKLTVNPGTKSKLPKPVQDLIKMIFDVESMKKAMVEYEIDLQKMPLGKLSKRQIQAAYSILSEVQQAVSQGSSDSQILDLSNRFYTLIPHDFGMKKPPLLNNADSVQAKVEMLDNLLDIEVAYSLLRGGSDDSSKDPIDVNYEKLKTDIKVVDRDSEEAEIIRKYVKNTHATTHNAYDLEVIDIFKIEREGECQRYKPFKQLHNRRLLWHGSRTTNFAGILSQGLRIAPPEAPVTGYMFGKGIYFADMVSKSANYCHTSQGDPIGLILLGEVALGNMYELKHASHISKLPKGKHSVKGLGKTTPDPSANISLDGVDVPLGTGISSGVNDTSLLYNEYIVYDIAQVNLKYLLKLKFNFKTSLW

SMILES: C[C@@]1(c2nc3c(C(N)=O)cccc3[nH]2)CCCN1 [veliparib, 2-[(S)-2-methylpyrrolidin-2-yl]-1H-benzimidazole-4-carboxamide]
- PARP1 inhibition, veliparib versus XJB-veliparib [1]: similar
- Effect on DNA repair after H2O2 [2]: impeded DNA repair
- Protection against OGD at higher concentrations [3]: no additional protection
- Tumoricidal concentration [4]: > 100 µM
- Mitochondrial NAD+ stores after OGD [5]: preserved
- Concentration at which neurotoxicity (defined as >10% cell death) was seen [6]: 1000 nM
- Inhibition of glutamate-induced ferroptosis [7]: inhibit glutamate-induced ferroptosis
